# Data published in paper PMC12566046, “Arylpiperazinyl-Benzocycloheptapyrrole-Carboxamides Endowed with Dual Anticancer and Antiviral Activities” (Molecules, 2025).
# Experiments:
# [1] = tested on: NCI-H460 (non-small cell lung cancer); experiment: NCI-60 five-dose assay; format: cell-based; conditions: Homo sapiens, five-dose screen
# [2] = tested on: CAKI-1 (renal cancer cell line); experiment: NCI-60 five-dose assay; format: cell-based; conditions: Homo sapiens, five-dose screen
# in vitro = conditions: human
# [3] = tested on: cell line (breast cancer); experiment: NCI-60 single-dose assay; format: cell-based; conditions: Homo sapiens, HS%/(T cell line), 10^−5 M, read-out: growth inhibition (GI%)
# Summary of the method: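 Cytotoxicity was screened at a single dose across the NCI-60 human tumour cell panel, which covers leukemia, melanoma and lung, colon, CNS, ovarian, renal, prostate and breast cancers.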
# Huh-7 cells = experiment: Cytotoxicity on uninfected Huh-7 cells (WST-8, crystal violet); conditions: read-out: ZIKV/Huh‐7 CC50; preliminary screening (50, 5, 0.5 μM), Huh-7
molecule,measurement,setting,value
"CCN1CCC[C@H]1CNC(=O)c1[nH]c2c(c1Cl)CCCc1ccccc1-2 [Compound 1, (S)-3-Chloro-N-(1-ethyl-2-pyrrolidinylmethyl)-5,6-dihydro-4H-benzo[6,7]cyclohepta[1,2-b]pyrrol-2-carboxamide]",GI50,[1],2.03 µM
same,GI50,[2],2.29 µM
O=C(NCCN1CCN(c2ccc(Cl)cc2)CC1)c1c(Cl)[nH]c2c1CCCc1ccccc1-2 [Compound 13],CC50,in vitro,62.2 µM
"O=C(NCCCN1CCN(Cc2ccccc2)CC1)c1c(Cl)[nH]c2c1CCCc1ccccc1-2 [Compound 20, N-(3-(4-Benzylpiperazin-1-yl)propyl)-2-chloro-1,4,5,6-tetrahydrobenzo[6,7]cyclohepta[1,2-b]pyrrole-3-carboxamide]",inhibition at 10 µM,[3],72.4%
"N-(3-(4-Benzylpiperazin-1-yl)propyl)-2-chloro-1,4,5,6-tetrahydrobenzo[6,7]cyclohepta[1,2-b]pyrrole-2-carboxamide [Compound 11]",CC50,Huh-7 cells,4.89 µM
